The text below walks through data of patent US20210347758A1 (Tesaro, Inc., priority 2018, published 2021).

One series in a line: physchem. Particulars: for solubility at 24 h: 37 °C, thermodynamic from solid. On the procedure:
For each sample, 30 mg of the freebase was weighed into vials (in triplicate) and 1 mL of water or buffer was added. The following buffers (50 mM in each case) used were: • pH 1 25 mL KCl solution (1.49 g dissolved in 100 mL water) and 42.5 mL HCl solution (1.66 mL made up to 100 mL with water) were added together and made up to 100 mL with water; • pH 4.5 anhydrous sodium acetate (1.07 g) was dissolved in water (about 150 mL) before adding 5.9 mL acetic acid solution (11.6 mL glacial acetic acid made up to 100 mL with water). The resulting solution was made up to 500 mL with water; and • pH 6.8 25 mL of KH2PO4 solution (2.72 g dissolved in about 80 mL water and made up to 100 mL with water) and 11.2 mL of NaOH solution (800 mg of sodium hydroxide was dissolved and diluted to 100 mL with water) were added together and made up to 100 mL with water.
(§1) The resulting samples were shaken at 37° C. for 1 hour. […] All samples were then shaken at 37° C. for 23 hours. […] Any solids which were isolated by filtration were assessed by XRPD to determine whether the form of the material had changed.

The conditions of series [1]: solids shaken in water or pH 1 / 4.5 / 6.8 buffer at 37° C. As to the method: as §1
For series [2] the following is noted: up to 1 mL. As to the method: Between each addition, the mixture was checked for dissolution and, if no dissolution was apparent, the mixture was heated to about 50° C. and checked again. After 300 μL of solvent had been added, 100 μL aliquots were added sequentially. This procedure was continued until dissolution was observed or until 1 mL of solvent had been added. If no dissolution occurred, the solids were isolated by filtration and an XRPD pattern was collected. If dissolution occurred, the solvent was evaporated and an XRPD pattern was collected on any solid which remained.

The conditions of series [3]: for Hygroscopicity: GVS, double cycle. On the procedure:
Typically, approximately 10-20 mg of sample was placed into a mesh vapour sorption balance pan and loaded into an IGASorp Moisture Sorption Analyser balance by Hiden Analytical. The sample was subjected to a ramping profile from 40-90% relative humidity (RH) at 10% increments, maintaining the sample at each step until a stable weight had been achieved (98% step completion, minimum step length 30 minutes, maximum step length 60 minutes) at 25° C. After completion of the sorption cycle, the sample was dried using the same procedure to 0% RH, and finally taken back to the starting point of 40% RH. Two cycles were performed. The weight change during the sorption/desorption cycles were plotted, allowing for the hygroscopic nature of the sample to be determined.

In series [4] the test system is poly (ADP-ribose) polymerase (“PARP”) proteins. Particulars: selective for PARP-1 and PARP-2; Thorsell et al.; cited from earlier work.
Series [5] concerns BRCA1- and BRCA2-deficient cell lines. As to conditions: in vitro; cited from earlier work.
Series [6] deals with human cancers with deficiencies in BRCA1 and BRCA2 or with homologous recombination deficiency (HRD). Particulars: mutated or wild-type BRCA1/2; cited from earlier work.
[7] abbreviates: pH 1 buffer (50 mM), shaken at 37° C. for 24 hours in total, average of triplicate.
[8] abbreviates: water, shaken at 37° C. for 24 hours in total, average of triplicate.

Converted amounts (≈) assume the structure as drawn. Like-named read-outs stand apart in the source and are kept apart here.

With `NC(=O)c1cccc2cn(-c3ccc([C@@H]4CCCNC4)cc3)nc12` [Amorphous Form, 2-{4-[(3S)-piperidin-3-yl]phenyl}-2H-indazole-7-carboxamide], the Solubility (commonly the concentration that dissolves in the medium under given conditions) in “physchem” (setting [7]) was 11.8 mg/mL (≈ 36.8 mM); in “physchem” (water, Solubility in water, summary statement, conditions not stated) it was roughly 1 mg/mL (≈ 3.12 mM); in “physchem” (setting [8]) it was 0.8 mg/mL (≈ 2.5 mM). For the same molecule, the solubility (commonly the dissolved amount per volume that the medium holds) at 24 h in the series “physchem” (pH 4.5 sodium acetate/acetic acid buffer, pH 4.5, aqueous buffer, pH 4.5 buffer (50 mM), shaken at 37° C. for 24 hours in total, average of triplicate) turned out to be 13400 µg/mL (≈ 41.8 mM); in “physchem” (pH 6.8 KH2PO4/NaOH buffer, pH 6.8, aqueous buffer, pH 6.8 buffer (50 mM), shaken at 37° C. for 24 hours in total, average of triplicate), 600 µg/mL (≈ 1.87 mM). Further, in series [1] (listed as amorphous samples), the “Solid form after filtration (XRPD)” value was “a new crystalline form was obtained (Form V)”. The “Dissolution in 2-propanol” value in series [2] (2-propanol, heated to about 50° C.) is listed as “partially soluble”. Besides, the Dissolution in ethanol result in series [2] (ethanol, with heating to about 40° C.) was “Complete dissolution”.

Consider `NC(=O)c1cccc2cn(-c3ccc([C@@H]4CCCNC4)cc3)nc12` [Crystalline Form I, 2-{4-[(3S)-piperidin-3-yl]phenyl}-2H-indazole-7-carboxamide], for which the Solubility in the series “physchem” (setting [7]) is 30.9 mg/mL (≈ 96.4 mM); in the series “physchem” (pH 4.5 buffer (50 mM), shaken at 37° C. for 24 hours in total, average of triplicate) it was 11.8 mg/mL (≈ 36.8 mM); in the series “physchem” (pH 6.8 buffer (50 mM), shaken at 37° C. for 24 hours in total, average of triplicate) it was 0.7 mg/mL (≈ 2.18 mM); in “physchem” (setting [8]), less than 0.1 mg/mL. Also, the Hygroscopicity result in series [3] (listed as Niraparib freebase Form I) is given as “non-hygroscopic”; in series [3] (listed as niraparib freebase Form I) it was “non-hydroscopic”. The GVS mass increase result in series [3] (up to 90% RH, 25° C.) was “about 0.7%”. Besides, the “Solid form after filtration (XRPD)” value in series [1] (listed as crystalline samples) is given as “unchanged”.

`NC(=O)c1cccc2cn(-c3ccc([C@@H]4CCCNC4)cc3)nc12` [Niraparib, 2-{4-[(3S)-piperidin-3-yl]phenyl}-2H-indazole-7-carboxamide]: the PARP inhibition result in series [4] was “potent inhibitor”. In series [5], the Inhibition of proliferation result is “inhibits the proliferation”. For the same molecule, in series [6], the Tumor growth entry is given as “decreases tumor growth”.
